Source: patent US8722096B2, “Lipoic acid pellets” (Aptalis Pharma Limited, priority 2006, dated 2014)

Tests used:
[1] = Stability of lipoic acid in ethanol/phosphate buffer solutions; type: physicochemical; settings: ethanol/phosphate buffer 50 mM pH 6.8, 80:20 to 90:10; room temperature, protected from light
Description: In case the application in the solvent form is chosen, for example ethanol, acetone or other solvents or their mixtures thereof can be used. Also other mixtures of organic solvents with buffer solutions can be used, for example mixtures of ethanol and phosphate buffers. These mixtures can be composed by ethanol/phosphate buffer 50 mM pH:6.8 in proportions ranging from 80:20 to 90:10. In these solutions, lipoic acid is stable for at least 24 hours if stored at room temperature and protected from light. Lipoic acid is dissolved in these solvents at an optimal concentration ranging from 20 to 30% w/w, depending on the type of solvent or solvent mixture used. Application of the lipoic acid solution on the core is performed by wetting and subsequent evaporation of the solvent in presence of air at a temperature lower than 40° C., preferably ranging between 36 and 38° C. This procedure yields active cores with a low content of residual solvents.

[2] = gives polymerization products; cited from earlier work

## O=C(O)CCCCC1CCSS1 (centres unmarked) [lipoic acid, 1,2-dithiolan-3-pentanoic acid]
[1]
  time for which lipoic acid is stable in solution: at least 24 hours
[2]
  stability under environmental conditions: unstable under various environmental conditions
